Experimental data as given in US5030760A, “Tetrahydrophthalimides, and their production and use” (Sumitomo Chemical Company, Ltd., priority 1981, dated 1991).

Legend:
corn [1] = experiment: Test Example 2, field foliar treatment, phytotoxicity to corn; type: in vivo; conditions: 3 weeks; note: ranges in brackets are in %
Protocol: (§1) The application of the tetrahydrophthalimides (I) as herbicides will be illustratively shown in the following Examples wherein the phytotoxicity to cultivated plants and the herbicidal activity on weeds were evaluated as follows: the aerial parts of the test plants were cut off and weighed (fresh weight); the percentage of the fresh weight of the treated plant to that of the untreated plant was calculated with the latter fresh weight taken as 100; and the crop damage and the herbicidal activity were evaluated by the standard given in the table below. The rating values of phytotoxicity, 0 and 1, and those of herbicidal effect, 5 and 4, are generally regarded as satisfactory to protect cultivated plants and control weeds, respectively. The rating values in the paddy field test alone were calculated from the dry weight of the test plants.
(§2) Seeds of corn and broad-leaved weeds such as cocklebur, common purslane and tall morningglory were sown in the field as previously laid up in ridges, each ridge having an upper width of 1 m. At the time when the corn grew up to the 6-leaf stage and the broad-leaved weeds up to 2 to 5-leaf stages, a designed amount of the test compound formulated into an emulsifiable concentrate according to Preparation Example 2 and dispersed in water was sprayed to the foliage of the test plants with three replications over the top by means of a small hand sprayer at a spray volume of 5 liters per are. After cultivation for 3 weeks, herbicidal activity and phytotoxicity were examined.

cocklebur = experiment: Test Example 2, field foliar treatment, herbicidal activity; type: in vivo, Xanthium pennsylvanicum; conditions: 3 weeks; note: ranges in brackets are in %
Protocol: as §1, §2

common purslane = experiment: as above; type: in vivo, Portulaca oleracea; conditions: 3 weeks; note: ranges in brackets are in %
Protocol: as §1, §2

tall morningglory [2] = experiment: as above; type: in vivo, Ipomoea purpurea; conditions: 3 weeks
Protocol: as §1, §2

rice plant = experiment: Test Example 7, flooded paddy pot dripping, phytotoxicity to rice plant; type: in vivo; conditions: 3 weeks; note: ranges in brackets are in %
Protocol: as §1
(§3) Wagner's pots (1/5000 are) were filled with paddy field soil and water was poured therein to make a flooded condition. Rice seedlings of the 3-leaf stage were transplanted and tubers of slender spikerush and arrowhead and the seeds of barnyardgrass, monochoria and broad-leaved weed were sowed therein and grown for 5 days. When germination occurs, a designed amount of the test compound formulated into an emulsifiable concentrate according to Preparation Example 2 was applied to the pots by dripping. The test plants were grown for a further 3 weeks, and herbicidal activity and phytotoxicity were examined. The herbicidal activity was evaluated in figures ranging from 0 to 5. The phytotoxicity to the crop plants was also indicated on the same standard as that of the herbicidal activity.

barnyardgrass [3] = experiment: Test Example 7, flooded paddy pot dripping, herbicidal activity; type: in vivo, Echinochloa crus-galli; conditions: 3 weeks; note: ranges in brackets are in %
Protocol: as §1, §3

monochoria = experiment: as above; type: in vivo, Monochoria vaginalis; conditions: 3 weeks; note: ranges in brackets are in %
Protocol: as §1, §3

broad-leaved weed = experiment: as above; type: in vivo; conditions: 3 weeks; note: ranges in brackets are in %
Protocol: as §1, §3

slender spikerush = experiment: as above; type: in vivo, Eleocharis acicularis; conditions: 3 weeks; note: ranges in brackets are in %
Protocol: as §1, §3

arrowhead = experiment: as above; type: in vivo, Sagittaria pygmaea; conditions: 3 weeks; note: ranges in brackets are in %
Protocol: as §1, §3

corn [4] = experiment: Test Example 1, foliar treatment, phytotoxicity to corn; type: in vivo; conditions: 3 weeks; note: ranges in brackets are in %
Protocol: as §1
(§4) Plastic beakers (diameter, 10 cm; height, 10 cm) were filled with upland field soil, and the seeds of corn, barnyardgrass, wild oat, wild mustard and velvetleaf were separately sown in the beakers and grown for 2 weeks in the greenhouse. A designed amount of the test compound was sprayed to the foliage of the test plants by means of a small hand sprayer. After the spraying, the test plants were further grown for 3 weeks in the greenhouse, and herbicidal activity was examined. In this foliar treatment, the test compounds were formulated into an emulsifiable concentrate according to Preparation Example 2 and applied at a spray volume of 5 liters per are by dispersing it in water with the addition of a spreading agent.

barnyardgrass [5] = experiment: Test Example 1, foliar treatment, herbicidal activity; type: in vivo, Echinochloa crus-galli; conditions: 3 weeks; note: ranges in brackets are in %
Protocol: as §1, §4

wild oat = experiment: as above; type: in vivo, Avena fatua; conditions: 3 weeks; note: ranges in brackets are in %
Protocol: as §1, §4

wild mustard = experiment: as above; type: in vivo, Brassica kaber; conditions: 3 weeks
Protocol: as §1, §4

velvetleaf [6] = experiment: as above; type: in vivo, Abutilon theophrasti; conditions: 3 weeks
Protocol: as §1, §4

corn [7] = experiment: Test Example 4, pre-emergence treatment, phytotoxicity to corn; type: in vivo; conditions: 20 days; note: ranges in brackets are in %
Protocol: as §1
(§5) Plastic beakers (diameter, 10 cm; height, 10 cm) were filled with upland field soil, and the seeds of corn, cotton and soybean and the seeds of morningglory, velvetleaf, Johnsongrass and green foxtail were separately sown in the beakers. A designed amount of the test compound was sprayed over the top by means of a small hand sprayer. After the spraying, the test plants were grown for 20 days in the greenhouse, and herbicidal activity and phytotoxicity were examined. In this pre-emergence treatment, the test compounds were formulated into an emulsifiable concentrate according to Preparation Example 2 and applied at a spray volume of 5 liters per are by dispersing it in water with the addition of a spreading agent.

cotton = experiment: Test Example 4, pre-emergence treatment, phytotoxicity to cotton; type: in vivo; conditions: 2.5 g/are, 20 days; note: ranges in brackets are in %
Protocol: as §1, §5

soybean [8] = experiment: Test Example 4, pre-emergence treatment, phytotoxicity to soybean; type: in vivo; conditions: 20 days; note: ranges in brackets are in %
Protocol: as §1, §5

morningglory = experiment: Test Example 4, pre-emergence treatment, herbicidal activity; type: in vivo; conditions: 10 g/are, 20 days; note: ranges in brackets are in %
Protocol: as §1, §5

velvetleaf [9] = experiment: as above; type: in vivo, Abutilon theophrasti; conditions: 20 days
Protocol: as §1, §5

Johnsongrass [10] = experiment: as above; type: in vivo, Sorghum halepense; conditions: 20 days
Protocol: as §1, §5

green foxtail [11] = experiment: as above; type: in vivo, Setaria viridis; conditions: 20 days
Protocol: as §1, §5

soybean [12] = experiment: Test Example 5, spraying over the top, phytotoxicity to soybean; type: in vivo; conditions: sprayed over the top, 20 days; note: ranges in brackets are in %
Protocol: as §1
(§6) Plastic trays (35 cm×25 cm×15 cm) were filled with upland field soil, and the seeds of tall morningglory, velvetleaf, jimsonweed, sicklepod, hemp sesbania, prickly side, Johnsongrass, green foxtail and large crabgrass and the seeds of soybean were sown therein. A designed amount of the test compound formulated into a wettable powder according to Preparation Example 1 and dispersed in water was sprayed over the top by means of a small hand sprayer at a spray volume of 5 liters per are. After the spraying, the test plants were grown in greenhouse for 20 days, and phytotoxicity and herbicidal activity were examined.

tall morningglory [13] = experiment: Test Example 5, spraying over the top, herbicidal activity; type: in vivo, Ipomoea purpurea; conditions: sprayed over the top, 20 days; note: ranges in brackets are in %
Protocol: as §1, §6

velvetleaf [14] = experiment: as above; type: in vivo, Abutilon theophrasti; conditions: sprayed over the top, 20 days
Protocol: as §1, §6

jimsonweed = experiment: as above; type: in vivo, Datura stramonium; conditions: sprayed over the top, 20 days; note: ranges in brackets are in %
Protocol: as §1, §6

hemp sesbania = experiment: as above; type: in vivo, Sesbania exaltator; conditions: sprayed over the top, 20 days; note: ranges in brackets are in %
Protocol: as §1, §6

prickly sida = experiment: as above; type: in vivo, Sida spinosa; conditions: sprayed over the top, 20 days; note: ranges in brackets are in %
Protocol: as §1, §6

sicklepod = experiment: as above; type: in vivo, Cassia obtusifolia; conditions: sprayed over the top, 20 days; note: ranges in brackets are in %
Protocol: as §1, §6

green foxtail [15] = experiment: as above; type: in vivo, Setaria viridis; conditions: sprayed over the top, 20 days
Protocol: as §1, §6

large crabgrass = experiment: as above; type: in vivo, Digitaria sanguinalis; conditions: sprayed over the top, 20 days; note: ranges in brackets are in %
Protocol: as §1, §6

Johnsongrass [16] = experiment: as above; type: in vivo, Sorghum halepense; conditions: sprayed over the top, 20 days
Protocol: as §1, §6
Throughout, for Herbicidal activity, Green foxtail: ranges in brackets are in %.
Throughout, for Herbicidal activity, Johnsongrass: ranges in brackets are in %.
Throughout, for Herbicidal activity, Tall morningglory: ranges in brackets are in %.
Throughout, for Herbicidal activity, Velvetleaf: ranges in brackets are in %.

CCCCCOc1cc(N2C(=O)C3=C(CCCC3)C2=O)c(F)cc1Cl [Compound No. 7, N-(4-chloro-2-fluoro-5-n-amyloxyphenyl)-3,4,5,6-terahydrophthalimide]
3 (50-69): Herbicidal activity, Allowhead (arrowhead; 1.25 g/are)
2 (21-40): Herbicidal activity, Tall morningglory (tall morningglory [2]; 0.16 g/are)
3 (11-20): Herbicidal activity, Tall morningglory (tall morningglory [2]; 0.32 g/are)
4 (1-10): Herbicidal activity, Cocklebur (cocklebur; 0.16 g/are) | Herbicidal activity, Cocklebur (cocklebur; 0.32 g/are) | Herbicidal activity, Tall morningglory (tall morningglory [2]; 0.63 g/are)
5 (90-100): Herbicidal activity, Barnyardgrass (barnyardgrass [3]; 2.5 g/are) | Herbicidal activity, Barnyardgrass (barnyardgrass [3]; 5 g/are) | Herbicidal activity, Monochoria (monochoria; 1.25 g/are) | Herbicidal activity, Monochoria (monochoria; 2.5 g/are) | Herbicidal activity, Monochoria (monochoria; 5 g/are) | Herbicidal activity, Broad-leaved weed (broad-leaved weed; 1.25 g/are) | Herbicidal activity, Broad-leaved weed (broad-leaved weed; 2.5 g/are) | Herbicidal activity, Broad-leaved weed (broad-leaved weed; 5 g/are) | Herbicidal activity, Slender spikerush (slender spikerush; 2.5 g/are) | Herbicidal activity, Slender spikerush (slender spikerush; 5 g/are) | Herbicidal activity, Allowhead (arrowhead; 5 g/are)
0 (0-9): Phytotoxicity, Rice plant (rice plant; 1.25 g/are) | Phytotoxicity, Rice plant (rice plant; 2.5 g/are) | Phytotoxicity, Rice plant (rice plant; 5 g/are)
0 (100): Phytotoxicity, Corn (corn [1]; 0.16 g/are) | Phytotoxicity, Corn (corn [1]; 0.32 g/are) | Phytotoxicity, Corn (corn [1]; 0.63 g/are)
4 (70-89): Herbicidal activity, Barnyardgrass (barnyardgrass [3]; 1.25 g/are) | Herbicidal activity, Slender spikerush (slender spikerush; 1.25 g/are) | Herbicidal activity, Allowhead (arrowhead; 2.5 g/are)
5 (0): Herbicidal activity, Cocklebur (cocklebur; 0.63 g/are) | Herbicidal activity, Common purslane (common purslane; 0.16 g/are) | Herbicidal activity, Common purslane (common purslane; 0.32 g/are) | Herbicidal activity, Common purslane (common purslane; 0.63 g/are)

COc1cc(N2C(=O)C3=C(CCCC3)C2=O)c(F)cc1Br [Compound No. 12, N-(4-bromo-2-fluoro-5-methoxyphenyl)-3,4,5,6-tetrahydrophthalimide]
5 (0): Herbicidal activity, Barnyardgrass (barnyardgrass [5]; 5 g/are) | Herbicidal activity, Wild cat (wild oat; 5 g/are) | Herbicidal activity, Wild mustard (wild mustard; 5 g/are) | Herbicidal activity, Velvetleaf (velvetleaf [6]; 1.25 g/are) | Herbicidal activity, Velvetleaf (velvetleaf [6]; 5 g/are) | Herbicidal activity, Morningglory (morningglory) | Herbicidal activity, Velvetleaf (velvetleaf [9]; 2.5 g/are) | Herbicidal activity, Velvetleaf (velvetleaf [9]; 10 g/are) | Herbicidal activity, Johnsongrass (Johnsongrass [10]; 2.5 g/are) | Herbicidal activity, Johnsongrass (Johnsongrass [10]; 10 g/are) | Herbicidal activity, Green foxtail (green foxtail [11]; 2.5 g/are) | Herbicidal activity, Green foxtail (green foxtail [11]; 10 g/are) | Herbicidal activity, Tall morningglory (tall morningglory [13]; 9 g/are) | Herbicidal activity, Velvetleaf (velvetleaf [14]; 3 g/are) | Herbicidal activity, Velvetleaf (velvetleaf [14]; 9 g/are) | Herbicidal activity, Jimsonweed (jimsonweed; 3 g/are) | Herbicidal activity, Jimsonweed (jimsonweed; 9 g/are) | Herbicidal activity, Hemp sesbania (hemp sesbania; 9 g/are) | Herbicidal activity, Prickly sida (prickly sida; 3 g/are) | Herbicidal activity, Prickly sida (prickly sida; 9 g/are) | Herbicidal activity, Sicklepod (sicklepod; 9 g/are) | Herbicidal activity, Green foxtail (green foxtail [15]; 3 g/are) | Herbicidal activity, Green foxtail (green foxtail [15]; 9 g/are) | Herbicidal activity, Large crabgrass (large crabgrass; 3 g/are) | Herbicidal activity, Large crabgrass (large crabgrass; 9 g/are) | Herbicidal activity, Johnsongrass (Johnsongrass [16]; 3 g/are) | Herbicidal activity, Johnsongrass (Johnsongrass [16]; 9 g/are)
1 (41-60): Herbicidal activity, Wild cat (wild oat; 1.25 g/are)
0 (100): Phytotoxicity, Corn (corn [7]; 2.5 g/are) | Phytotoxicity, Cotton (cotton) | Phytotoxicity, Soybean (soybean [8]; 2.5 g/are) | Phytotoxicity, Soybean (soybean [8]; 10 g/are) | Phytotoxicity, Soybean (soybean [12]; 3 g/are) | Phytotoxicity, Soybean (soybean [12]; 9 g/are)
1 (90-99): Phytotoxicity, Corn (corn [4]; 1.25 g/are) | Phytotoxicity, Corn (corn [4]; 5 g/are) | Phytotoxicity, Corn (corn [7]; 10 g/are)
2 (21-40): Herbicidal activity, Barnyardgrass (barnyardgrass [5]; 1.25 g/are)
4 (1-10): Herbicidal activity, Wild mustard (wild mustard; 1.25 g/are) | Herbicidal activity, Tall morningglory (tall morningglory [13]; 3 g/are) | Herbicidal activity, Hemp sesbania (hemp sesbania; 3 g/are) | Herbicidal activity, Sicklepod (sicklepod; 3 g/are)
